Experiments:
Test in all cases: relative viability (nuclei count vs DMSO), 5 days (fraction); higher = more cells survive
[1] = compound: COc1cc2nc(N3CCCN(C)CC3)nc(NC3CCN(Cc4ccccc4)CC3)c2cc1OC + C[C@@H](Oc1cc(-c2cnn(C3CCNCC3)c2)cnc1N)c1c(Cl)ccc(F)c1Cl [Crizotinib] (partner 1 µM)
In short: (§1)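 One day after seeding in 1536-well plates, lung cancer cell lines were dosed by pin tool. Dosing was either single-drug or a fixed anchor-drug dose plus five library-drug doses (not always all listed) in √10 steps. After 5 days, nuclei were stained in one fix-and-stain step and counted on 4× images, and relative viability is the nuclei count of treated wells over that of vehicle wells, given as the median of duplicate plates.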

[2] = compound: COc1cc2nc(N3CCCN(C)CC3)nc(NC3CCN(Cc4ccccc4)CC3)c2cc1OC + C[C@]1(O)C[C@@H](c2nc(-c3ccc4ccc(-c5ccccc5)nc4c3)c3c(N)nccn32)C1 [Linsitinib] (partner 1 µM)
In short: as §1

[3] = compound: Cc1cc([C@@H](C)Nc2ccccc2C(=O)O)c2nc(N3CCOCC3)cc(=O)n2c1 [AZD6482] + Nc1ncn([C@H]2C[C@H](O)[C@@H](CO)O2)c(=O)n1 [Decitabine] (partner 2 µM)
In short: as §1

[4] = compound: Cc1cc([C@@H](C)Nc2ccccc2C(=O)O)c2nc(N3CCOCC3)cc(=O)n2c1 [AZD6482] + CC(=O)c1c(C)c2cnc(Nc3ccc(N4CCNCC4)cn3)nc2n(C2CCCC2)c1=O [Palbociclib] (partner 0.5 µM)
In short: as §1

Cell Line | relative viability ([1]; first compound 0.2 µM) | relative viability ([1]; first compound 0.6325 µM) | relative viability ([1]; first compound 2 µM) | relative viability ([1]; first compound 6.325 µM) | relative viability ([2]; first compound 0.2 µM) | relative viability ([2]; first compound 0.6325 µM) | relative viability ([2]; first compound 2 µM) | relative viability ([2]; first compound 6.325 µM) | relative viability ([3]; first compound 0.08 µM) | relative viability ([3]; first compound 0.253 µM) | relative viability ([3]; first compound 0.8 µM) | relative viability ([3]; first compound 2.53 µM) | relative viability ([3]; first compound 8 µM) | relative viability ([4]; first compound 0.08 µM) | relative viability ([4]; first compound 0.253 µM) | relative viability ([4]; first compound 0.8 µM) | relative viability ([4]; first compound 2.53 µM) | relative viability ([4]; first compound 8 µM)
NCI-H2347 | 0.794 | 0.675 | 0.634 | 0.626 | 0.936 | 0.927 | 0.882 | 0.922 | 0.474 | 0.565 | 0.555 | 0.52 | 0.449 | 0.35 | 0.389 | 0.406 | 0.394 | 0.389
NCI-H2405 | 0.869 | 0.825 | 0.927 | 0.894 | 0.934 | 0.975 | 0.979 | 0.809 | 0.641 | 0.666 | 0.732 | 0.447 | 0.541 | 0.378 | 0.495 | 0.526 | 0.455 | 0.413
NCI-H3122 | 0.256 | 0.305 | 0.293 | 0.267 | 1.01 | 1.01 | 1.03 | 1.06 | 0.474 | 0.393 | 0.389 | 0.277 | 0.298 | 0.192 | 0.198 | 0.168 | 0.155 | 0.154
PC-3 [JPC-3] | 0.972 | 0.974 | 1.11 | 0.869 | 1 | 0.931 | 1.01 | 0.903 | 0.775 | 0.827 | 0.773 | 0.714 | 0.751 | 0.559 | 0.564 | 0.528 | 0.572 | 0.534
